Data from US7662388B2, “Endogenous peptide and active subfragments thereof” (Innoventus Project AB, priority 2003, dated 2010).

Experiments:
[1] = system: NIH 3T3 murine fibroblasts; test: chemotaxis assay in modified Boyden chamber, NIH 3T3 fibroblasts; assay type: cell-based; details: 100 ng/ml HRGP
Method: (§1) The porcine aortic endothelial (PAE) cell line overexpressing FGF receptor-1 (FGFR-1) (Wennström et al 1992) was cultured in Ham's F12/10% fetal bovine serum (FCS) and NIH 3T3 murine fibroblasts were cultured in Dulbecco's modified medium (DMEM)/10% newborn calf serum (NCS). F12, DMEM and serum were bought from Life Technologies. Primary bovine adrenal cortex capillary endothelial (BCE) cells were cultured on gelatin-coated dishes in DMEM/10% NCS and 2 ng/ml FGF-2 (Boehringer Mannheim). For chemotaxis assays, both PAE and NIH 3T3 cells were serum-starved over night in 0.1% BSA and BCE cells in 0.5% NCS. Human embryonic kidney (HEK) 293-EBNA cells were cultured in DMEM/10% FCS. Approximately every second month they were given 0.25 mg/ml G418 (Calbiochem) to ensure positive selection of the EBNA-1 expressing cells.
A migration assay was performed in a modified Boyden chamber as described earlier (Auerbach et al., 1991) using micropore polycarbonate filters (8 μm thick, 8 μm pore) coated with type-1 collagen solution at 100 μg/ml (Vitrogen 100, Collagen Corp). […] After 5 h at 37° C., migrated cells were stained with Giemsa and counted using an image analysis software (Easy Image Analysis) from Tekno Optik AB, Sweden. All samples were analysed in at least six parallel wells for each treatment.

T241 fibrosarcoma cells = test: TUNEL and Ki67 staining of tumour sections; assay type: in vivo, mice
Method: Paraffin-sections of tumours from control- or HRGP-treated animals were immunohistochemically (IHC) stained for CD31 and Ki67 using a goat anti-mouse CD31 antibody (1506; Santa Cruz), diluted 1:500 and incubated at +4° C. over night, and a rat anti-mouse Ki67 antibody (TEC-3/M7249; DAKO) diluted 1:50 and incubated for 30 min. at room temperature, according to standard IHC procedures. Detection of apoptotic cells by the TUNEL-technique was performed using ApopTag™ (Intergen Company) according to the manufacturer's protocol. Stereological quantification of vascular parameters was performed as described earlier by Weibel et al (1979) and Gundersen et al (1988). Quantification of the relative number of Tunel- and Ki67-positive cells was calculated from approximately 3000 cells per tumour section, in three tumours from each treatment group. Significance at the level of P<0.05 was calculated using Students t-test.

primary BCE cells = test: chemotaxis (migration) assay in modified Boyden chamber, BCE cells; assay type: cell-based, bovine
Method: as §1
A migration assay was performed in a modified Boyden chamber as described earlier (Auerbach et al., 1991) using micropore polycarbonate filters (8 μm thick, 8 μm pore) coated with type-1 collagen solution at 100 μg/ml (Vitrogen 100, Collagen Corp). BCE, PAE/FGFR-1 or NIH 3T3 cells were preincubated or not with HRGP (100 ng/ml) for 30 min, trypsinised and resuspended at a concentration of 7.5×10^5 cells/ml in Dulbecco's modified essential medium (Invitrogen) containing 0.25% BSA and Trasylol at 1000 KIE. FGF-2 and VEGF-A was used at 5 ng/ml, HRGP and the protein C inhibitor (PCI) at 100 ng/ml and BSA at 0.25%. After 5 h at 37° C., migrated cells were stained with Giemsa and counted using an image analysis software (Easy Image Analysis) from Tekno Optik AB, Sweden. All samples were analysed in at least six parallel wells for each treatment.

## HRGP: mature human Histidine Rich Glycoprotein, about 507 amino acid residues
[1]
  FGF-2-induced chemotaxis of NIH 3T3 murine fibroblasts: not inhibited
T241 fibrosarcoma cells; TUNEL staining, HRGP vs IgG control
  tumour apoptosis compared to control group: No difference in tumour apoptosis
T241 fibrosarcoma cells; tumours from HRGP-treated mice
  percentage of apoptotic (TUNEL-positive) cells in the tumours: less than 1%
T241 fibrosarcoma cells; tumours from HRGP-treated mice, control 43%
  proportion of proliferating (Ki67-positive) cells in tumours: 29%
Primary BCE cells; 100 ng/ml HRGP
  FCS-induced chemotaxis of BCE cells: not inhibited
Primary BCE cells; 100 ng/ml HRGP, VEGF-A 5 ng/ml
  VEGF-A-induced chemotaxis of BCE cells: inhibited
Primary BCE cells; 100 ng/ml protein, FGF-2 5 ng/ml, 5 h
  FGF-2-induced chemotaxis of BCE cells: completely arrested
